The text below walks through data of patent publication US5707987A, “Carbapenem derivatives” (Banyu Pharmaceutical Co., Ltd., priority 1994, dated 1998).

The test system of one series is S. aureus BB5939. Kind of series: In vitro antibacterial activity, agar plate dilution method (MIC). It is filed as cell-based. Conditions: Staphylococcus aureus, read-out: Minimum Inhibitory Concentration (MIC). Here is the method: (§1) One platinum loopful of each test microorganism incubated overnight in Mueller Hinton broth, was inoculated to Mueller Hinton agar (inoculum size: 10^6 CFU/ml). Such culture media contained antibacterial agents in various concentrations. […] The minimum inhibitory concentrations of the compounds of the present invention were compared with imipenem.

A further series deals with S. aureus pMS520/Smith. Described as above. It is filed as cell-based. Conditions: Staphylococcus aureus, 16 h, read-out: Minimum Inhibitory Concentration (MIC). On the procedure:
as §1

Series [1] concerns DHP-I. It is filed as in vitro ADME. Conditions: ratio to imipenem (=1.0); the smaller the value, the higher the stability. From the text: Further, the DHP-I susceptibility was quantitatively analyzed by the method by Kropp et al., Antimicrob. Agents Chemother., vol. 22, pp. 62-70 (1982), whereby the smaller the numerical value representing the ratio to imipenem (=1.0), the higher the stability.
The DHP-1 susceptibility of the compounds of the present invention were compared with imipenem.

Series [2] concerns renal dehydropeptidase I (DHP-I). Conditions: in vivo; cited from earlier work.
Series [3] has as its system gram positive bacteria and gram negative bacteria. To be noted: background statement; cited from earlier work.
The conditions of series [4]: cited from earlier work.
For series [5] the following is noted: background statement; cited from earlier work.
The subject of series [6] is DHP-I. To be noted: background statement; cited from earlier work.
The subject of another series is kidney. To be noted: background statement; cited from earlier work.
Another series deals with β-lactamase. Conditions: background statement; cited from earlier work.
In series [7] the test system is highly methicillin-resistant Staphylococcus aureus resistant to imipenem and imipenem-resistant Pseudomonas aeruginosa. To be noted: background statement; cited from earlier work.
The mark [8] stands for this setting: S. aureus BB5939 (β-lactamase-producing bacterium per footnote), inoculum 10^6 CFU/ml, Mueller Hinton agar, 37° C., 16 hours.

In brackets after ≈: the same amount, converted by molar mass. Like-named read-outs stand apart in the source and are kept apart here.

Turning to `C[C@@H](O)[C@H]1C(=O)N2C(C(=O)O)=C(S[C@@H]3CN[C@H](C(O)c4ccc(-c5ccc(CN)cc5)cc4)C3)[C@H](C)[C@H]12` (single isomer, unassigned; diastereomer i) [Example 140], the MIC in the series on S. aureus BB5939 (setting [8]) is 0.78 µg/mL (≈ 1.49 µM); in the series with S. aureus pMS520/Smith, 1.56 µg/mL (≈ 2.98 µM). Besides, the DHP-I susceptibility with DHP-I [1] is less than 0.05.

For `C[C@@H](O)[C@H]1C(=O)N2C(C(=O)O)=C(S[C@@H]3CN[C@H](Cc4ccc(CN)cc4)C3)[C@H](C)[C@H]12` [Example 131], the results for the MIC with S. aureus BB5939 (setting [8]) and in the series with S. aureus pMS520/Smith were 0.78 µg/mL (≈ 1.81 µM) and 3.13 µg/mL (≈ 7.25 µM), respectively. Moreover, the DHP-I susceptibility in the series with DHP-I [1] is recorded as less than 0.05.

In the case of `C[C@@H](O)[C@H]1C(=O)N2C(C(=O)[O-])=C(S[C@@H]3CN[C@H](CSc4ccccc4)C3)[C@H](C)[C@H]12.[Na+]`, the MIC with S. aureus BB5939 (BB5939, 16 h) was found to be 0.39 µg/mL; in the series with S. aureus pMS520/Smith, 1.56 µg/mL. Besides, in the series on DHP-I [1], the DHP-I susceptibility is 0.15.

For the compound `C[C@@H](O)[C@H]1C(=O)N2C(C(=O)O)=C(S[C@@H]3CN[C@H](COc4ccccc4)C3)[C@H](C)[C@H]12` [Example 128, (1R,5S,6S)-6-[(R)-1-Hydroxyethyl]-1-methyl-2-[(3S,5S)-5-(phenoxymethyl)pyrrolidin-3-ylthio]-1-carbapen-2-em-3-carboxylic acid], the DHP-I susceptibility with DHP-I [1] stood at 0.16.

For the compound `C[C@@H](O)[C@H]1C(=O)N2C(C(=O)O)=C(S[C@@H]3CN[C@H](COc4ccc(CN)cc4)C3)[C@H](C)[C@H]12.Cl` [Example 127, (1R,5S,6S)-2-[(3S,5S)-5-[4-(Aminomethyl)phenoxymethyl]-pyrrolidin-3-ylthio]-6-[(R)-1-hydroxyethyl]-1-methyl-1-carbapen-2-em-3-carboxylic acid monohydrochloride], the results for the MIC with S. aureus BB5939 (setting [8]) and in the series with S. aureus pMS520/Smith were 0.78 µg/mL and 3.13 µg/mL, respectively. Also, the DHP-I susceptibility in the series on DHP-I [1] is 0.15.

Consider `C[C@@H](O)[C@H]1C(=O)N2C(C(=O)O)=C(SCCN)C[C@H]12` [thienamycin], for which the “decomposition by renal dehydropeptidase I” value in [2] was “likely to be decomposed”. Besides, in series [3], the antibacterial activities result was “excellent antibacterial spectrum and strong antibacterial activities”. Besides, the chemical stability entry in series [4] (background statement) was “chemically unstable”. Also, the “recovery rate in the urine” value in series [5] is reported as “low”. Moreover, the “decomposition by DHP-I in the human kidney” value in the series with DHP-I [6] is on record as “likely to be decomposed by DHP-I in the human kidney”.

On to `C=CCN1C[C@@H](SC2=C(C(=O)O)N3C(=O)[C@H]([C@@H](C)O)[C@H]3[C@H]2C)C[C@H]1Cc1cccc2ccccc12` [Example 137, (1R,5S,6S)-2-[(3S,5R)-N-Allyl-5-(1-naphthylmethyl)pyrrolidin-3-ylthio]-6-[(R)-1-hydroxyethyl]-1-methyl-1-carbapen-2-em-3-carboxylic acid], for which the DHP-I susceptibility in the series on DHP-I [1] is less than 0.05.

Regarding `C[C@@H](O)[C@H]1C(=O)N2C(C(=O)O)=C(S[C@@H]3CN[C@H](CNc4ccc(CN)cc4)C3)[C@H](C)[C@H]12.Cl` [Example 121, (1R,5S,6S)-2-[(3S,5S)-5-[4-(Aminomethyl)anilinomethyl]-pyrrolidin-3-ylthio]-6-[(R)-1-hydroxyethyl]-1-methyl-1-carbapen-2-em-3-carboxylic acid monohydrochloride], the MIC in the series with S. aureus BB5939 (setting [8]) is 0.39 µg/mL; in the series on S. aureus pMS520/Smith, 1.56 µg/mL. Moreover, in the series on DHP-I [1], the DHP-I susceptibility was 0.15.

For the compound `C[C@@H](O)[C@H]1C(=O)N2C(C(=O)O)=C(SCCN=CN)C[C@H]12` [Imipenem, (5R,6S)-3-[2-(formimidoylamino)ethylthie]-6-[(R)-1-hydroxyethyl]-7-oxo-1-azabicyclo[3.2.0]hept-2-en-2-carboxylic acid monohydrate], the MIC with S. aureus BB5939 (BB5939, 16 h) was 6.25 µg/mL; in the series with S. aureus pMS520/Smith, greater than 25 µg/mL. The DHP-I susceptibility with DHP-I [1] came to 1.0. Further, in series [3], the antibacterial activities entry was “antibacterial activities of an equal or higher level than thienamycin”. Besides, in the series with kidney, the “toxicity against the kidney” value is listed as “presents toxicity against the kidney”. For the same compound, the “stability in the solid form or in an aqueous solution” value in series [4] (vs thienamycin) is given as “remarkably improved over thienamycin”. For the same compound, the β-lactamase resistance result in the series with β-lactamase is reported as “β-lactamase resistance”. Also, the “decomposition by DHP-I in the human kidney” value in the series with DHP-I [6] is listed as “likely to be decomposed by DHP-I in the human kidney”. In addition, in [7], the “treating effects against resistant bacteria” value is on record as “does not show adequate treating effects against these resistant bacteria”.

On to `CN[C@H](CC(C)C)C(=O)N[C@H]1C(=O)N[C@@H](CC(N)=O)C(=O)N[C@H]2C(=O)N[C@H]3C(=O)N[C@H](C(=O)N[C@H](C(=O)O)c4cc(O)cc(O)c4-c4cc3ccc4O)[C@H](O)c3ccc(c(Cl)c3)Oc3cc2cc(c3O[C@@H]2O[C@H](CO)[C@@H](O)[C@H](O)[C@H]2O[C@H]2C[C@](C)(N)[C@H](O)[C@H](C)O2)Oc2ccc(cc2Cl)[C@H]1O` [vancomycin], for which the “toxicity against the kidney” value with kidney is “strong toxicity”.
